Measurements taken from the NIST ThermoML archive (doi:10.1016/j.fluid.2013.07.012).

Test: xn = mol fraction of the nth substance listed
Details: 101 kPa, Liquid, Direct current cell with electrodes

CCN(CC)CCO.Cl [2-(diethylamino)ethanol hydrochloride] + OCCO
electrical conductivity [S/m]
Details	x1 = 0.2	x1 = 0.25	x1 = 0.34
298.15 K	0.5661	0.543	0.512
303.15 K	0.6994	0.6878	0.6627
308.15 K	0.8245	0.8305	0.794
313.15 K	0.9699	0.9486	0.9283
318.15 K	1.158	1.134	1.095
323.15 K	1.341	1.315	1.254
328.15 K	1.509	1.477	1.433
333.15 K	1.714	1.666	1.616
338.15 K	1.875	1.839	1.778
343.15 K	2.029	1.99	1.942
348.15 K	2.226	2.192	2.135
353.15 K	2.405	2.367	2.31

C[N+](C)(C)CCO.[Cl-] [choline chloride] + OCC(O)CO
electrical conductivity [S/m]
Details	x1 = 0.25	x1 = 0.34	x1 = 0.5
298.15 K	0.1463	0.1749	0.1929
303.15 K	0.1553	0.1951	0.219
308.15 K	0.203	0.2549	0.3161
313.15 K	0.257	0.3004	0.368
318.15 K	0.3112	0.399	0.4603
323.15 K	0.3816	0.512	0.5864
328.15 K	0.4811	0.6046	0.6668
333.15 K	0.5757	0.7187	0.7805
338.15 K	0.6717	0.816	0.898
343.15 K	0.7805	0.8955	0.9863
348.15 K	0.9286	1.063	1.155
353.15 K	1.08	1.219	1.295

C[N+](C)(C)CCO.[Cl-] [choline chloride] + OCCO
electrical conductivity [S/m]
Details	x1 = 0.28	x1 = 0.34	x1 = 0.36
298.15 K	0.832	0.733	0.68
303.15 K	1.067	1.019	0.9138
308.15 K	1.207	1.141	1.086
313.15 K	1.413	1.355	1.294
318.15 K	1.656	1.589	1.479
323.15 K	1.798	1.718	1.633
328.15 K	2.126	2.023	1.839
333.15 K	2.425	2.299	2.01
338.15 K	2.515	2.42	2.177
343.15 K	2.627	2.56	2.347
348.15 K	2.78	2.707	2.475
353.15 K	2.869	2.8072	2.604
